Where only a bound is given, the exact number is not on record here.

The assay addresses T1, human M4 receptor (Homo sapiens, UniProt P08173).
T1 construct: expressed in transfected cells; host or cells: CHO cells
T1 sequence (P08173 1-479): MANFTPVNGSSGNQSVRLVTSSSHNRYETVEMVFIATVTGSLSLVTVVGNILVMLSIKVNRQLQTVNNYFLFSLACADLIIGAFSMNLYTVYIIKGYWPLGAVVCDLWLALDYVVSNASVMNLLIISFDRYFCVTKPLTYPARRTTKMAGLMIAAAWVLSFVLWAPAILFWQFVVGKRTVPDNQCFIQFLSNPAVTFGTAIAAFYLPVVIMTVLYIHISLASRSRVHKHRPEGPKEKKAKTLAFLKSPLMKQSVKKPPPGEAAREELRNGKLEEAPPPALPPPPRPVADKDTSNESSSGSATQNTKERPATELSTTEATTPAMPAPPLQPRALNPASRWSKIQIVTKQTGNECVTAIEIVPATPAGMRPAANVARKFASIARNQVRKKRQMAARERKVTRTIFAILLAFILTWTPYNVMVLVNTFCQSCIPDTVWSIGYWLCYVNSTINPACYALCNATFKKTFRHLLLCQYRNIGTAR
Kind of assay: Radioligand ([3H]N-methylscopolamine) binding assay, membranes from CHO cells expressing human M4 receptor. As to conditions: Ki against human M4 receptor; membranes from CHO cells; tritiated N-methylscopolamine 1.5 nM; read-out: K. The procedure, abridged:
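Ki values derive from displacement of tritiated N-methylscopolamine (1.5 nM) from human M4 receptor in CHO membranes. Membranes, radioligand and twelve-point compound series were incubated together at 37 °C for 90 minutes in pH 7.4 HEPES/NaCl/MgCl2/EDTA buffer. Rapid vacuum filtration over polyethylenimine-pretreated filters was followed by radioactivity counting.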
On to `C[C@@H]1CN(c2cnc(C(F)(F)F)cn2)C[C@@H](C)N1C(=O)NC1CC2(C1)CN(Cc1ccc(Cl)cc1)C2` [Compound 259, (2R,6R)-N-{2-[(4-chlorophenyl)methyl]-2-azaspiro[3.3]heptan-6-yl}-2,6-dimethyl-4-[5-(trifluoromethyl)pyrazin-2-yl]piperazine-1-carboxamide], for which the Ki was 100 to 1000 nM.
Then `C[C@@H]1CN(c2cnc(C(F)(F)F)cn2)[C@@H](C)CN1C(=O)NC1CC2(C1)CN(Cc1ccc(Cl)cc1)C2` [Compound 260, (2R,5S)-N-{2-[(4-chlorophenyl)methyl]-2-azaspiro[3.3]heptan-6-yl}-2,5-dimethyl-4-[5-(trifluoromethyl)pyrazin-2-yl]piperazine-1-carboxamide], with 10 to 100 nM; and `C[C@@H]1CN(c2cnc(C(F)(F)F)cn2)CCN1C(=O)NC1CC2(C1)CN(Cc1ccc(Cl)cc1)C2` [Compound 261, (2R)-N-{2-[(4-chlorophenyl)methyl]-2-azaspiro[3.3]heptan-6-yl}-2-methyl-4-[5-(trifluoromethyl)pyrazin-2-yl]piperazine-1-carboxamide], with 10 to 100 nM; and `C[C@@H]1CN(c2ncc(C(F)(F)F)cn2)[C@@H](C)CN1C(=O)NC1CC2(C1)CN(Cc1ccc(F)cc1)C2` [Compound 265, (2R,5S)-N-{2-[(4-fluorophenyl)methyl]-2-azaspiro[3.3]heptan-6-yl}-2,5-dimethyl-4-[5-(trifluoromethyl)pyrimidin-2-yl]piperazine-1-carboxamide], with 10 to 100 nM.
The value for `C[C@@H]1CN(c2ncc(C(F)(F)F)cn2)CCN1C(=O)NC1CC2(C1)CN(Cc1ccc(F)cc1)C2` [Compound 266, (2R)-N-{2-[(4-fluorophenyl)methyl]-2-azaspiro[3.3]heptan-6-yl}-2-methyl-4-[5-(trifluoromethyl)pyrimidin-2-yl]piperazine-1-carboxamide] was 100 to 1000 nM.
`C[C@@H]1CN(c2cnc(C(F)(F)F)cn2)C[C@H](C)N1C(=O)NC1CC2(C1)CN(Cc1ccc(F)cc1)C2` [Compound 267, (2R,6S)-N-{2-[(4-fluorophenyl)methyl]-2-azaspiro[3.3]heptan-6-yl}-2,6-dimethyl-4-[5-(trifluoromethyl)pyrazin-2-yl]piperazine-1-carboxamide]: the Ki was in the range of 10 to 100 nM.
The value for `C[C@@H]1CN(c2cnc(C(F)(F)F)cn2)[C@@H](C)CN1C(=O)NC1CC2(C1)CN(Cc1ccc(F)cc1)C2` [Compound 269, (2R,5S)-N-{2-[(4-fluorophenyl)methyl]-2-azaspiro[3.3]heptan-6-yl}-2,5-dimethyl-4-[5-(trifluoromethyl)pyrazin-2-yl]piperazine-1-carboxamide] was 10 to 100 nM; that for `C[C@@H]1CN(c2cnc(C(F)(F)F)cn2)CCN1C(=O)NC1CC2(C1)CN(Cc1ccc(F)cc1)C2` [Compound 270, (2R)-N-{2-[(4-fluorophenyl)methyl]-2-azaspiro[3.3]heptan-6-yl}-2-methyl-4-[5-(trifluoromethyl)pyrazin-2-yl]piperazine-1-carboxamide] was 10 to 100 nM.
The value for `[2H]c1c([2H])c([2H])c(CN2CC3(CC(NC(=O)N4[C@H](C)CN(c5ncc(C(F)(F)F)cn5)C[C@@H]4C)C3)C2)c([2H])c1[2H]` [Compound 273, (2R,6S)-N-{2-[(^2H5)benzyl]-2-azaspiro[3.3]heptan-6-yl}-2,6-dimethyl-4-[5-(trifluoromethyl)pyrimidin-2-yl]piperazine-1-carboxamide] was < 10 nM; that for `[2H]c1c([2H])c([2H])c(C([2H])N2CC3(CC(NC(=O)N4[C@H](C)CN(c5ncc(C(F)(F)F)cn5)C[C@@H]4C)C3)C2)c([2H])c1[2H]` (stereo partly drawn) [Compound 274, (2R,6S)-2,6-dimethyl-N-{2-[(^2H5)phenyl(^2H1)methyl]-2-azaspiro[3.3]heptan-6-yl}-4-[5-(trifluoromethyl)pyrimidin-2-yl]piperazine-1-carboxamide] was < 10 nM; that for `[2H]c1c([2H])c([2H])c(C([2H])([2H])N2CC3(CC(NC(=O)N4[C@H](C)CN(c5ncc(C(F)(F)F)cn5)C[C@@H]4C)C3)C2)c([2H])c1[2H]` [Compound 275, (2R,6S)-2,6-dimethyl-N-{2-[(^2H5)phenyl(^2H2)methyl]-2-azaspiro[3.3]heptan-6-yl}-4-[5-(trifluoromethyl)pyrimidin-2-yl]piperazine-1-carboxamide] was < 10 nM.
Then `C[C@@H]1CN(c2ncc(C(F)(F)F)cc2F)C[C@H](C)N1C(=O)OC1CC2(C1)CN(Cc1ccccc1)C2` [Compound 277, 2-benzyl-2-azaspiro[3.3]heptan-6-yl (2R,6S)-4-[3-fluoro-5-(trifluoromethyl)pyridin-2-yl]-2,6-dimethylpiperazine-1-carboxylate], with < 10 nM; and `C[C@@H]1CN(c2ncc(Cl)cn2)C[C@H](C)N1C(=O)OC1CC2(C1)CN(Cc1ccccc1)C2` [Compound 278, 2-benzyl-2-azaspiro[3.3]heptan-6-yl (2R,6S)-4-(5-chloropyrimidin-2-yl)-2,6-dimethylpiperazine-1-carboxylate], with 10 to 100 nM.
With `Cc1nc(N2C[C@@H](C)N(C(=O)OC3CC4(C3)CN(Cc3ccccc3)C4)[C@@H](C)C2)ncc1Cl` [Compound 279, 2-benzyl-2-azaspiro[3.3]heptan-6-yl (2R,6S)-4-(5-chloro-4-methylpyrimidin-2-yl)-2,6-dimethylpiperazine-1-carboxylate], the Ki was 10 to 100 nM.
For `CCOc1ccc(N2C[C@@H](C)N(C(=O)NC3CC4(C3)CN(Cc3ccccc3)C4)[C@@H](C)C2)cc1` [Compound 284, (2R,6S)-N-{2-benzyl-2-azaspiro[3.3]heptan-6-yl}-4-(4-ethoxyphenyl)-2,6-dimethylpiperazine-1-carboxamide], the Ki was in the range of 100 to 1000 nM.
Turning to `C[C@@H]1CN(c2ncc(C(F)(F)F)cn2)C[C@H](C)N1C(=O)NC1CC2(C1)CN(Cc1cccnc1Cl)C2` [Compound 291, (2R,6S)-N-{2-[(2-chloropyridin-3-yl)methyl]-2-azaspiro[3.3]heptan-6-yl}-2,6-dimethyl-4-[5-(trifluoromethyl)pyrimidin-2-yl]piperazine-1-carboxamide], the Ki is 100 to 1000 nM.
The value for `C[C@@H]1CN(c2ncc(C(F)(F)F)cn2)C[C@H](C)N1C(=O)NC1CC2(C1)CN(Cc1ccc3occc3c1)C2` [Compound 298, (2R,6S)-N-[2-(1-benzofuran-5-ylmethyl)-2-azaspiro[3.3]heptan-6-yl]-2,6-dimethyl-4-[5-(trifluoromethyl)pyrimidin-2-yl]piperazine-1-carboxamide] was < 10 nM; that for `C[C@@H]1CN(c2ncc(C(F)(F)F)cn2)C[C@H](C)N1C(=O)NC1CC2(C1)CN(Cc1cccnc1)C2` [Compound 303, (2R,6S)-2,6-dimethyl-N-[2-(pyridin-3-ylmethyl)-2-azaspiro[3.3]heptan-6-yl]-4-[5-(trifluoromethyl)pyrimidin-2-yl]piperazine-1-carboxamide] was 10 to 100 nM.
Then `COc1ccc(CN2CC3(CC(NC(=O)N4[C@H](C)CN(c5ncc(C(F)(F)F)cn5)C[C@@H]4C)C3)C2)cn1` [Compound 305, (2R,6S)-N-{2-[(6-methoxypyridin-3-yl)methyl]-2-azaspiro[3.3]heptan-6-yl}-2,6-dimethyl-4-[5-(trifluoromethyl)pyrimidin-2-yl]piperazine-1-carboxamide], with 10 to 100 nM; and `C[C@@H]1CN(c2ncc(C(F)(F)F)cn2)C[C@H](C)N1C(=O)NC1CC2(C1)CN(Cc1ccc(Cl)nc1)C2` [Compound 307, (2R,6S)-N-{2-[(6-chloropyridin-3-yl)methyl]-2-azaspiro[3.3]heptan-6-yl}-2,6-dimethyl-4-[5-(trifluoromethyl)pyrimidin-2-yl]piperazine-1-carboxamide], with 10 to 100 nM.
For `C[C@@H]1CN(c2ncc(C(F)(F)F)cn2)C[C@H](C)N1C(=O)NC1CC2(C1)CN(Cc1ccc[nH]1)C2` [Compound 309, (2R,6S)-2,6-dimethyl-N-[2-(1H-pyrrol-2-ylmethyl)-2-azaspiro[3.3]heptan-6-yl]-4-[5-(trifluoromethyl)pyrimidin-2-yl]piperazine-1-carboxamide], the Ki was in the range of 10 to 100 nM.
Then `C[C@@H]1CN(c2ncc(C(F)(F)F)cn2)C[C@H](C)N1C(=O)NC1CC2(C1)CN(CCc1ccccc1)C2` [Compound 311, (2R,6S)-2,6-dimethyl-N-[2-(2-phenylethyl)-2-azaspiro[3.3]heptan-6-yl]-4-[5-(trifluoromethyl)pyrimidin-2-yl]piperazine-1-carboxamide], with 100 to 1000 nM; and `C[C@@H]1CN(c2ncc(C(F)(F)F)cn2)C[C@H](C)N1C(=O)NC1CC2(C1)CN(CCCCc1ccccc1)C2` [Compound 312, (2R,6S)-2,6-dimethyl-N-[2-(4-phenylbutyl)-2-azaspiro[3.3]heptan-6-yl]-4-[5-(trifluoromethyl)pyrimidin-2-yl]piperazine-1-carboxamide], with 100 to 1000 nM; and `C[C@@H]1CN(c2ncc(C(F)(F)F)cn2)C[C@H](C)N1C(=O)NC1CC2(C1)CN(CC1=CCCCC1)C2` [Compound 313, (2R,6S)-N-[2-(cyclohex-1-en-1-ylmethyl)-2-azaspiro[3.3]heptan-6-yl]-2,6-dimethyl-4-[5-(trifluoromethyl)pyrimidin-2-yl]piperazine-1-carboxamide], with 10 to 100 nM.

For the origin of these results see patent US20230129359A1, “MUSCARINIC RECEPTOR 4 ANTAGONISTS AND METHODS OF USE” (Neurocrine Biosciences, Inc., priority 2020, published 2023).
